These results are taken from ChEMBL document CHEMBL3627700, “Discovery of novel N-aryl piperazine CXCR4 antagonists” (Bioorg Med Chem Lett, 2015).

A short description of data set [1]: Cytotoxicity against human Chem1 cells. Type of data set: cell-based. The following applies: read-out: TC50 (the source's name).
In data set [2] the test system is Human immunodeficiency virus 1. The experiment in a line: Antiviral activity against HIV1 3B assessed as inhibition of viral attachment to human MAGI cells. It counts as functional, organism-based. The following applies: Human immunodeficiency virus 1, 3B.
Data set [3] is described as follows: Cytotoxicity against human MAGI cells. It counts as cell-based. As to conditions: read-out: TC50 (the source's name).
The target in data set [4] is T1, C-X-C chemokine receptor type 4 (Homo sapiens, UniProt P61073). The experiment in a line: Antagonist activity at CXCR4 in human Chem-1 cells assessed as inhibition of CXCL12-induced calcium flux. Type of data set: functional, cell-based.
T1 sequence (P61073 whole entry): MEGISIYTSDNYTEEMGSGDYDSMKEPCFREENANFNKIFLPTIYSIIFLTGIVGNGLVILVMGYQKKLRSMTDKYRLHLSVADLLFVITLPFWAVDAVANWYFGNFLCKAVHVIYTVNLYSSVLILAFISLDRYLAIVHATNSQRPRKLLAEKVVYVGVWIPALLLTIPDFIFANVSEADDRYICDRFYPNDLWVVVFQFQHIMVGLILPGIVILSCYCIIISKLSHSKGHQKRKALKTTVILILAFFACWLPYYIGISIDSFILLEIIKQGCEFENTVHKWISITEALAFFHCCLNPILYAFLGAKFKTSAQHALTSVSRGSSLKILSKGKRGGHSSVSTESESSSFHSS
The target of data set [5] is T1, C-X-C chemokine receptor type 4.
Description: Displacement of [125I]-SDF-1 from CXCR4 (unknown origin)
Data set [6] addresses T2, hERG (KCNH2) (Homo sapiens, UniProt Q12809). The experiment in a line: Displacement of [3H]-dofetilide from human ERG in HEK293 cells at 10 uM. Type of data set: cell-based. As to conditions: HEK293 cells that express hERG, probe [3H]-dofetilide.
Data set [7] is described as follows: Selectivity ratio of IC50 for CXCR4 in human Chem-1 cells to IC50 for HIV1 3B assessed as inhibition of viral attachment to human MAGI cells. Type of data set: cell-based.
The target of a further data set is CYP3A4 (Homo sapiens, UniProt P08684). The experiment in a line: Inhibition of human CYP3A4 at 1 uM.
Sequence of CYP3A4 (P08684 whole entry): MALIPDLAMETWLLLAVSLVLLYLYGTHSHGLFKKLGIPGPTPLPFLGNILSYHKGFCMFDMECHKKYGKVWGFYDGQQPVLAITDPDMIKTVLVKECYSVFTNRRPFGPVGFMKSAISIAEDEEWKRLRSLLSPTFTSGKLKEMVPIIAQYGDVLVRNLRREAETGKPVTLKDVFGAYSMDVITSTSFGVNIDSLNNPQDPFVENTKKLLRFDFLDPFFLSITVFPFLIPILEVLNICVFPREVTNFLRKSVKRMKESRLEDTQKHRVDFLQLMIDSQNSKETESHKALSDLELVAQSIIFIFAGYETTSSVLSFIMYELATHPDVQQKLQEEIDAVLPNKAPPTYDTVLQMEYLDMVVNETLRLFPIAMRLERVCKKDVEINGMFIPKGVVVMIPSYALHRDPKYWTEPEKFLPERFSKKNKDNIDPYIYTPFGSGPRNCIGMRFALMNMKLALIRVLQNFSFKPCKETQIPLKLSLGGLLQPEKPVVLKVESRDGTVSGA
The next data set concerns the target CYP2C19 (Homo sapiens, UniProt P33261). The experiment in a line: Inhibition of human CYP2C19 at 1 uM. Type of data set: ADME.
In data set [8] the target is T2, hERG (KCNH2). The experiment in a line: Displacement of [3H]-dofetilide from human ERG in HEK293 cells at 1 uM. As to conditions: HEK293 cells that express hERG, probe [3H]-dofetilide. Type of data set: cell-based.
The subject of data set [9] is Human immunodeficiency virus 1. The experiment in a line: Antiviral activity against HIV1 3B infected in PBMC. Type of data set: functional, organism-based. As to conditions: Human immunodeficiency virus 1, 3B.
The next data set concerns the target CYP2D6 (Homo sapiens, UniProt P10635). The experiment in a line: Inhibition of human CYP2D6 at 1 uM.

Some results are limits rather than exact numbers.

T2 sequence (Q12809 whole entry): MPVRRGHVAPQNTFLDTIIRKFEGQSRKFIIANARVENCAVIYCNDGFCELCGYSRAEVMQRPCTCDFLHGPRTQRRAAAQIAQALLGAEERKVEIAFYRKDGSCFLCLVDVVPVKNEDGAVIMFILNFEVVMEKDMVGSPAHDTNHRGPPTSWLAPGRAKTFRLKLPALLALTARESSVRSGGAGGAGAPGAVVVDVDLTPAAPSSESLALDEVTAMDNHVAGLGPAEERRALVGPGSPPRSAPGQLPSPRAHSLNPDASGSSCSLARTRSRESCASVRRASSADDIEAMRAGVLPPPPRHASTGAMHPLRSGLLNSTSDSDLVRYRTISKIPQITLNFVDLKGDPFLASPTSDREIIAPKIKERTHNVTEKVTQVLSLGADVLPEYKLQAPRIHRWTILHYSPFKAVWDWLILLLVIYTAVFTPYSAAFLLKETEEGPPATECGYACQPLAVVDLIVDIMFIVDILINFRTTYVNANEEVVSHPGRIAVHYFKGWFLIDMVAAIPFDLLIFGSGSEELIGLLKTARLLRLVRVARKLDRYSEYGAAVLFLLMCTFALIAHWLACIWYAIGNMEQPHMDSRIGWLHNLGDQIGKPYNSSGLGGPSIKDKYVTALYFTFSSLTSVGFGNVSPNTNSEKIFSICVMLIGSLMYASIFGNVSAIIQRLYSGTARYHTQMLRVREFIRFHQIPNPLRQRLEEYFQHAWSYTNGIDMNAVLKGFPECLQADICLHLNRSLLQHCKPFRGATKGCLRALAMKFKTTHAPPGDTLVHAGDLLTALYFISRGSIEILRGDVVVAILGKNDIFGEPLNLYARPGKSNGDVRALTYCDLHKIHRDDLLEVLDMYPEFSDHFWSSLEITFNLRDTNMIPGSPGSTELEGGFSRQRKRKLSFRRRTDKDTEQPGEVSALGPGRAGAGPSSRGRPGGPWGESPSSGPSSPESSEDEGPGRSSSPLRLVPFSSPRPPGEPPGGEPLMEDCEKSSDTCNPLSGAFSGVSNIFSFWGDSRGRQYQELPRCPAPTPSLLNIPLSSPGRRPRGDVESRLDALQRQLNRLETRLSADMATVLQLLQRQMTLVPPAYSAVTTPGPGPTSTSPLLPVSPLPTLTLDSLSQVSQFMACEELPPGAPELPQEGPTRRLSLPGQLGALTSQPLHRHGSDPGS
Sequence of CYP2D6 (P10635 whole entry): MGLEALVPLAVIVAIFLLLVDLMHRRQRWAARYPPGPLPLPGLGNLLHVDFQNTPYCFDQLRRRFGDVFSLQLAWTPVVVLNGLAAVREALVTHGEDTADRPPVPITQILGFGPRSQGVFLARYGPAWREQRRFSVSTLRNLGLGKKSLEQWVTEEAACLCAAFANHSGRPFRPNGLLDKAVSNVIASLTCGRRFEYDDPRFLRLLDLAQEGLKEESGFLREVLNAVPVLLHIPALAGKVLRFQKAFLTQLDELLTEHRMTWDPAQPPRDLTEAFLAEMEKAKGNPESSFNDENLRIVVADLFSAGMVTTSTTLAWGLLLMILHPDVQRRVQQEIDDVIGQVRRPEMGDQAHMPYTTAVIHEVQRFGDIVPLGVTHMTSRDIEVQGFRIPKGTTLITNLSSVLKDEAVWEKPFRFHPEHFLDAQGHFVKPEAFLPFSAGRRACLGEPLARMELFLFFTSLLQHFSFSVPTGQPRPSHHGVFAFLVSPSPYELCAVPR
Sequence of CYP2C19 (P33261 whole entry): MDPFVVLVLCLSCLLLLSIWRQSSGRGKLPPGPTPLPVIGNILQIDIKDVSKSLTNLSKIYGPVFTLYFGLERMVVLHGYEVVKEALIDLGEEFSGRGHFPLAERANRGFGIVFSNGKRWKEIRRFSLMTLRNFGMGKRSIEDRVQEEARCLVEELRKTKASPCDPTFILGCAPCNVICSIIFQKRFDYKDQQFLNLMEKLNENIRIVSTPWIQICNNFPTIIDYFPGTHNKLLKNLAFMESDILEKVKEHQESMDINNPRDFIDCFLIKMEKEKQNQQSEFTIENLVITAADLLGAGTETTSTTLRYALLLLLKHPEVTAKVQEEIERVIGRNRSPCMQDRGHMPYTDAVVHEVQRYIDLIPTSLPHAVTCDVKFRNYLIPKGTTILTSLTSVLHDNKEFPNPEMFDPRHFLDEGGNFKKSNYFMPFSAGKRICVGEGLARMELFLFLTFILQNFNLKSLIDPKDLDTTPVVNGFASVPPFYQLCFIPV

As for `NCCCCN(C[C@H]1CNCCN1)[C@H]1CCCc2cccnc21`, the CC50 in data set [1] and in data set [3] was greater than 10 µM in each case. Moreover, the IC50 is 0.31 µM in data set [2] and 0.255 µM in data set [4].

Consider `NCCCCN(C[C@@H]1CNCCN1)[C@H]1CCCc2cccnc21`, for which the CC50 in data set [1] and in data set [3] was greater than 10 µM in each case. Also, the IC50 stood at 1.1 µM in [2] and 1.2 µM in [4].

Turning to `NCCCCN(C[C@H]1CN(Cc2ccccc2)CCN1)[C@H]1CCCc2cccnc21`, the CC50 in [1] and in data set [3] was greater than 10 µM in each case. Besides, the IC50 in [4] was found to be 0.23 µM.

As to `NCCCCN(C[C@@H]1CN(Cc2ccccc2)CCN1)[C@H]1CCCc2cccnc21`, the CC50 in data set [1] and in data set [3] was greater than 10 µM each time. Also, the IC50 in [5] turned out to be 2.92 µM; in data set [4], 0.19 µM.

Regarding `NCCCCN(C[C@H]1CN(C(=O)c2ccccc2)CCN1)[C@H]1CCCc2cccnc21`, the CC50 in data set [1] and in data set [3] was greater than 10 µM in each case. Moreover, the IC50 is 0.06 µM in data set [2] and 0.002 µM in data set [4].

Take `NCCCCN(C[C@@H]1CN(C(=O)c2ccccc2)CCN1)[C@H]1CCCc2cccnc21`: the CC50 in data set [1] and in [3] was greater than 10 µM in each case. The inhibition at 10 µM at hERG (KCNH2) [6] was found to be 55%. The IC50 is 0.02 µM in [2], 0.006 µM in data set [4] and 0.088 µM in [9]. Besides, the “Ratio IC50” value in data set [7] was 0.3. Further, the inhibition at 1 µM against CYP3A4 was determined as 0%; at CYP2C19 it was 2%; at hERG (KCNH2) [8], 18%; at CYP2D6 it was 19%.

Take `NCCCCN(C[C@H]1CNCCN1C(=O)c1ccccc1)[C@H]1CCCc2cccnc21`: the CC50 in data set [1] and in [3] was greater than 10 µM in each case. For the same molecule, the IC50 in data set [2] is greater than 100 µM.

For `NCCCCN(C[C@@H]1CNCCN1C(=O)c1ccccc1)[C@H]1CCCc2cccnc21`, the CC50 in data set [1] and in data set [3] was greater than 10 µM in each case. Moreover, the IC50 in data set [2] is greater than 100 µM.

Consider `NCCCCN(C[C@@H]1CN(C(=O)c2ccco2)CCN1)[C@H]1CCCc2cccnc21`, for which the CC50 in data set [1] and in data set [3] was greater than 10 µM each time. For the same molecule, the IC50 turned out to be 0.15 µM in data set [2] and 0.035 µM in [4].

Take `NCCCCN(C[C@H]1CN(C(=O)OCc2ccccc2)CCN1)[C@H]1CCCc2cccnc21`: the CC50 in [1] and in [3] was greater than 10 µM in each case. Also, the IC50 amounted to 0.34 µM in [2] and 0.018 µM in [4].

For `NCCCCN(C[C@@H]1CN(C(=O)OCc2ccccc2)CCN1)[C@H]1CCCc2cccnc21`, the CC50 in data set [1] and in data set [3] was greater than 10 µM in each case. Moreover, in [2], the IC50 turned out to be 1.35 µM.

As to `NCCCCN(C[C@H]1CN(S(=O)(=O)c2ccccc2)CCN1)[C@H]1CCCc2cccnc21`, the CC50 in data set [1] and in [3] was greater than 10 µM throughout. For the same molecule, the IC50 in [4] came to 0.002 µM.

As for `NCCCCN(C[C@@H]1CN(S(=O)(=O)c2ccccc2)CCN1)[C@H]1CCCc2cccnc21`, the CC50 in data set [1] and in data set [3] was greater than 10 µM throughout. In addition, the inhibition at 10 µM on hERG (KCNH2) [6] turned out to be 79%. For the same molecule, the inhibition at 1 µM at CYP3A4 was found to be 0%; at CYP2C19 it was 2%; on hERG (KCNH2) [8], 37%; on CYP2D6 it was 41%. Besides, the IC50 in [4] stood at 0.023 µM.

As for `NCCCCN(C[C@H]1CN(S(=O)(=O)c2ccc3ccccc3c2)CCN1)[C@H]1CCCc2cccnc21`, the CC50 in data set [1] and in [3] was greater than 10 µM each time. For the same molecule, the IC50 in data set [2] came to 4.6 µM; in data set [4], 0.071 µM.

As to `NCCCCN(C[C@H]1CN(S(=O)(=O)c2cc3ccccc3s2)CCN1)[C@H]1CCCc2cccnc21`, the CC50 in data set [1] and in data set [3] was greater than 10 µM throughout. The IC50 in [2] is 3.44 µM; in [4] it was 0.039 µM.

Regarding `NCCCCN(C[C@H]1CN(S(=O)(=O)c2ccc(Cl)cc2)CCN1)[C@H]1CCCc2cccnc21`, the CC50 in data set [1] and in data set [3] was greater than 10 µM in each case. In addition, the IC50 in [2] amounted to 0.05 µM; in [4], 0.002 µM.

`NCCCCN(C[C@H]1CN(C(=O)Nc2ccccc2)CCN1)[C@H]1CCCc2cccnc21`: the CC50 in [1] and in data set [3] was greater than 10 µM throughout. In data set [2], the half-maximal inhibitory concentration (IC50) was 0.35 µM.

For the molecule `NCCCCN(CC1CN(c2ccccc2)CCN1)[C@H]1CCCc2cccnc21` (mixture of isomers), the CC50 in data set [1] and in [3] was greater than 10 µM each time. The concentration for half-maximal inhibition (IC50) was 0.72 µM in [2] and 0.13 µM in [4].

As for `NCCCCN(CC1CN(C(=O)c2ccco2)CCN1)[C@H]1CCCc2cccnc21` (mixture of isomers), the CC50 in [1] and in data set [3] was greater than 10 µM throughout. Moreover, the IC50 in [2] was 0.21 µM.

Take `NCCCCN(Cc1nc2ccccc2[nH]1)[C@H]1CCCc2cccnc21` [MAVORIXAFOR]: the inhibition at 1 µM at CYP2C19 was 20%; on CYP2D6, 100%.
